# Laboratory results taken from PubChem BioAssay (NCI).
#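 GI50 marks 50% less growth. The concentration for full growth arrest is given as TGI.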
# What was measured:
# Test in all cases: NCI anticancer screen, dose series, 384-well format
# HOP-62 NSCLC = system: HOP-62 NSCLC
# HCC-2998 colon = system: HCC-2998 colon
# IGROV1 ovarian = system: IGROV1 ovarian
# ACHN renal = system: ACHN renal
# OVCAR-8 ovarian = system: OVCAR-8 ovarian
# BT-549 breast = system: BT-549 breast
# MALME-3M melanoma = system: MALME-3M melanoma
# SW-620 colon = system: SW-620 colon
# M14 melanoma = system: M14 melanoma
# OVCAR-4 ovarian = system: OVCAR-4 ovarian
# HOP-92 NSCLC = system: HOP-92 NSCLC
# HT29 colon = system: HT29 colon
# SF-539 CNS = system: SF-539 CNS
# PC-3 prostate = system: PC-3 prostate
# CAKI-1 renal = system: CAKI-1 renal
# SF-295 CNS = system: SF-295 CNS
# A498 renal = system: A498 renal
# UACC-257 melanoma = system: UACC-257 melanoma
# HCT-116 colon = system: HCT-116 colon
# SN12C renal = system: SN12C renal
# COLO 205 colon = system: COLO 205 colon
# MDA-MB-435 melanoma = system: MDA-MB-435 melanoma
# NCI-H460 NSCLC = system: NCI-H460 NSCLC
# KM12 colon = system: KM12 colon
# UO-31 renal = system: UO-31 renal
# SK-MEL-28 melanoma = system: SK-MEL-28 melanoma
# LOX IMVI melanoma = system: LOX IMVI melanoma
# MCF7 breast = system: MCF7 breast
# U251 glioblastoma = system: U251 glioblastoma
# HCT-15 colon = system: HCT-15 colon
# SK-MEL-5 melanoma = system: SK-MEL-5 melanoma
# T-47D breast = system: T-47D breast
# MDA-MB-231 breast = system: MDA-MB-231 breast
# NCI-H23 lung = system: NCI-H23 lung
# DU-145 prostate = system: DU-145 prostate
# NCI-H226 lung = system: NCI-H226 lung
# OVCAR-5 ovarian = system: OVCAR-5 ovarian
# NCI/ADR-RES ovarian = system: NCI/ADR-RES ovarian
# SK-MEL-2 melanoma = system: SK-MEL-2 melanoma
# OVCAR-3 ovarian = system: OVCAR-3 ovarian
# SF-268 CNS = system: SF-268 CNS
# K-562 leukemia = system: K-562 leukemia
# SNB-19 CNS = system: SNB-19 CNS
# 786-0 renal = system: 786-0 renal
# RXF 393 renal = system: RXF 393 renal
# TK-10 renal = system: TK-10 renal
# UACC-62 melanoma = system: UACC-62 melanoma
# A549 NSCLC = system: A549 NSCLC
# RPMI-8226 leukemia = system: RPMI-8226 leukemia
# SK-OV-3 ovarian = system: SK-OV-3 ovarian
smiles,measurement,setting,value
CC[C@@H]1c2c(C#N)ncn2-c2cnc(Nc3ccc(C(=O)NC4CCN(C5CCN(CC6CC6)CC5)CC4)cc3OC)nc2N1C1CCCC1,GI50,HOP-62 NSCLC,28.6 nM
same,TGI,HOP-62 NSCLC,76.6 nM
same,GI50,HCC-2998 colon,20.9 nM
same,TGI,HCC-2998 colon,48.7 nM
same,GI50,IGROV1 ovarian,44.9 nM
same,TGI,IGROV1 ovarian,1660 nM
same,GI50,ACHN renal,204 nM
same,TGI,ACHN renal,767 nM
same,GI50,OVCAR-8 ovarian,21.7 nM
same,TGI,OVCAR-8 ovarian,41.8 nM
same,GI50,BT-549 breast,54.2 nM
same,TGI,BT-549 breast,228 nM
same,GI50,MALME-3M melanoma,134 nM
same,TGI,MALME-3M melanoma,263 nM
same,TGI,SW-620 colon,44.8 nM
same,GI50,M14 melanoma,30 nM
same,TGI,M14 melanoma,81.9 nM
same,GI50,OVCAR-4 ovarian,125 nM
same,TGI,OVCAR-4 ovarian,273 nM
same,GI50,HOP-92 NSCLC,43.3 nM
same,TGI,HOP-92 NSCLC,404 nM
same,GI50,HT29 colon,22 nM
same,TGI,HT29 colon,48.8 nM
same,GI50,SF-539 CNS,36.5 nM
same,TGI,SF-539 CNS,106 nM
same,GI50,PC-3 prostate,53.8 nM
same,TGI,PC-3 prostate,302 nM
same,GI50,CAKI-1 renal,137 nM
same,TGI,CAKI-1 renal,280 nM
same,GI50,SF-295 CNS,75.7 nM
same,TGI,SF-295 CNS,1480 nM
same,GI50,A498 renal,123 nM
same,TGI,A498 renal,254 nM
same,GI50,UACC-257 melanoma,78.5 nM
same,TGI,UACC-257 melanoma,201 nM
same,GI50,HCT-116 colon,21.4 nM
same,TGI,HCT-116 colon,107 nM
same,GI50,SN12C renal,103 nM
same,TGI,SN12C renal,356 nM
same,GI50,COLO 205 colon,19.8 nM
same,TGI,COLO 205 colon,110 nM
same,GI50,MDA-MB-435 melanoma,15.7 nM
same,TGI,MDA-MB-435 melanoma,38.6 nM
same,GI50,NCI-H460 NSCLC,16.4 nM
same,TGI,NCI-H460 NSCLC,35.1 nM
same,GI50,KM12 colon,23.9 nM
same,TGI,KM12 colon,74.9 nM
same,GI50,UO-31 renal,181 nM
same,TGI,UO-31 renal,322 nM
same,GI50,SK-MEL-28 melanoma,60.1 nM
same,TGI,SK-MEL-28 melanoma,182 nM
same,GI50,LOX IMVI melanoma,28.3 nM
same,TGI,LOX IMVI melanoma,59.6 nM
same,GI50,MCF7 breast,34.5 nM
same,TGI,MCF7 breast,169 nM
same,GI50,U251 glioblastoma,23.3 nM
same,TGI,U251 glioblastoma,152 nM
same,GI50,HCT-15 colon,137 nM
same,TGI,HCT-15 colon,269 nM
same,GI50,SK-MEL-5 melanoma,17.2 nM
same,TGI,SK-MEL-5 melanoma,65.6 nM
same,GI50,T-47D breast,117 nM
same,TGI,T-47D breast,241 nM
same,GI50,MDA-MB-231 breast,44.5 nM
same,TGI,MDA-MB-231 breast,158 nM
same,GI50,NCI-H23 lung,27.5 nM
same,TGI,NCI-H23 lung,61.4 nM
same,GI50,DU-145 prostate,23.9 nM
same,TGI,DU-145 prostate,53.8 nM
same,GI50,NCI-H226 lung,175 nM
same,TGI,NCI-H226 lung,1310 nM
same,GI50,OVCAR-5 ovarian,53 nM
same,TGI,OVCAR-5 ovarian,204 nM
same,GI50,NCI/ADR-RES ovarian,1110 nM
same,TGI,NCI/ADR-RES ovarian,2310 nM
same,GI50,SK-MEL-2 melanoma,13.8 nM
same,TGI,SK-MEL-2 melanoma,33.9 nM
same,GI50,OVCAR-3 ovarian,15.7 nM
same,TGI,OVCAR-3 ovarian,48.4 nM
same,GI50,SF-268 CNS,25.1 nM
same,TGI,SF-268 CNS,197 nM
same,GI50,K-562 leukemia,21.1 nM
same,TGI,K-562 leukemia,43.8 nM
same,GI50,SNB-19 CNS,38.7 nM
same,TGI,SNB-19 CNS,269 nM
same,GI50,786-0 renal,116 nM
same,TGI,786-0 renal,241 nM
same,GI50,RXF 393 renal,19.7 nM
same,TGI,RXF 393 renal,43.3 nM
same,GI50,TK-10 renal,317 nM
same,TGI,TK-10 renal,1740 nM
same,GI50,UACC-62 melanoma,32.8 nM
same,TGI,UACC-62 melanoma,95.5 nM
same,GI50,A549 NSCLC,41.7 nM
same,TGI,A549 NSCLC,171 nM
same,GI50,RPMI-8226 leukemia,13.9 nM
same,TGI,RPMI-8226 leukemia,31.5 nM
same,GI50,SK-OV-3 ovarian,26.1 nM
same,TGI,SK-OV-3 ovarian,87.5 nM
